Source: patent publication US11986532B2 (Arvinas Operations, Inc., priority 2021, dated 2024)
Read-outs that look alike come from different tables or passages of the source.

Molecular target: T1, BCL6 (Homo sapiens, UniProt P41182)
T1 construct: endogenous in cells; host or cells: T47D breast cancer epithelial cells
Assay: Immunofluorescence protocol for high content imaging of BCL6 (degradation) in T47D cells, 3 days compound treatment
Format: cell-based
Settings: for DC50: read-out: Mean DC50 (nM)* category; for Dmax: read-out: Mean Dmax (%)** category
In short: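 Cells are seeded to reach ~70-90% confluence at endpoint, then dosed next day with compound at a final top concentration of 0.1 or 1 μM (11 points, 3-fold). After 3 days, BCL6 is detected by immunofluorescence and quantified by high-content imaging.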

[1] = T47D cells, 3 days compound treatment

What does the source list for `CNC(=O)COc1cc2cc(Nc3nc(N4CCC(O[C@H]5C[C@H](N6CCN(c7ccc8c(c7C)C(=O)N(C7CCC(=O)NC7=O)C8=O)[C@H](C)C6)C5)CC4)ncc3Cl)ccc2n(C(C)C)c1=O` (stereo partly drawn) [Compound 193, 2-({6-[(5-chloro-2-{4-[(1r,3r)-3-[(3R)-4-[2-(2,6-dioxopiperidin-3-yl)-4-methyl-1,3-dioxoisoindol-5-yl]-3-methylpiperazin-1-yl]cyclobutoxy]piperidin-1-yl}pyrimidin-4-yl)amino]-1-isopropyl-2-oxoquinolin-3-yl}oxy)-N-methylacetamide]?
DC50 [1]: < 10 nM; Dmax [1]: ≥ 70%

What does the source list for `CNC(=O)COc1cc2cc(Nc3nc(N4CCN(CC5CCC6(CCN(c7ccc8c(c7)CN(C7CCC(=O)NC7=O)C8=O)C6)C5)CC4)ncc3Cl)ccc2n(C(C)C)c1=O` (centres unmarked) [Compound 75, 2-{[6-({5-chloro-2-[4-({2-[2-(2,6-dioxopiperidin-3-yl)-1-oxo-2,3-dihydro-1H-isoindol-5-yl]-2-azaspiro[4.4]nonan-7-yl}methyl)piperazin-1-yl]pyrimidin-4-yl}amino)-2-oxo-1-(propan-2-yl)-1,2-dihydroquinolin-3-yl]oxy}-N-methylacetamide]?
DC50 [1]: < 10 nM; Dmax [1]: 50 to 70%

Which results are given for `CNC(=O)COc1cc2cc(Nc3nc(N4CCC(O[C@H]5C[C@H](N6CCC(c7ccc8c(c7F)CN(C7CCC(=O)NC7=O)C8=O)C(F)C6)C5)CC4)ncc3Cl)ccc2n(C(C)C)c1=O` (some centres unmarked) [Compound 201, 2-[[6-[[5-chloro-2-[4-[3-[4-[2-(2,6-dioxo-3-piperidyl)-4-fluoro-1-oxo-isoindolin-5-yl]-3-fluoro-1-piperidyl]cyclobutoxy]-1-piperidyl]pyrimidin-4-yl]amino]-1-isopropyl-2-oxo-3-quinolyl]oxy]-N-methyl-acetamide]?
DC50 [1]: < 10 nM; Dmax [1]: ≥ 70%

Which results are given for `CNC(=O)COc1cc2cc(Nc3nc(N4CCN(CC5CCC6(CC5)CN(c5cccc7c5CN(C5CCC(=O)NC5=O)C7=O)C6)CC4)ncc3Cl)ccc2n(C(C)C)c1=O` (centres unmarked) [Compound 313, 2-{[6-({5-chloro-2-[4-({2-[2-(2,6-dioxopiperidin-3-yl)-1-oxo-2,3-dihydro-1H-isoindol-4-yl]-2-azaspiro[3.5]nonan-7-yl}methyl)piperazin-1-yl]pyrimidin-4-yl}amino)-2-oxo-1-(propan-2-yl)-1,2-dihydroquinolin-3-yl]oxy}-N-methylacetamide]?
Dmax (T47D): 50 to 70%; DC50: < 10 nM

For `CNC(=O)COc1cc2cc(Nc3nc(N4CCC(O[C@H]5C[C@H](N6CCC(c7cc(F)c8c(c7OC)CN(C7CCC(=O)NC7=O)C8=O)CC6)C5)CC4)ncc3Cl)ccc2n(C(C)C)c1=O` (some centres unmarked) [Compound 128, 2-({6-[(5-chloro-2-{4-[(1r,3r)-3-{4-[2-(2,6-dioxopiperidin-3-yl)-7-fluoro-4-methoxy-1-oxo-2,3-dihydro-1H-isoindol-5-yl]piperidin-1-yl}cyclobutoxy]piperidin-1-yl}pyrimidin-4-yl)amino]-2-oxo-1-(propan-2-yl)-1,2-dihydroquinolin-3-yl}oxy)-N-methylacetamide], which DC50 [1] is on record?
Its DC50 is under 10 nM.

And the Dmax [1]?
Its Dmax is 50 to 70%.

With `CNC(=O)COc1cc2cc(Nc3nc(N4CCC(O[C@H]5C[C@H](N6CCC(c7ccc8c(c7F)[C@H](C)N(C7CCC(=O)NC7=O)C8=O)CC6)C5)CC4)ncc3Cl)ccc2n(C(C)C)c1=O` (stereo partly drawn) [Compound 291, 2-({6-[(5-chloro-2-{4-[(1r,3r)-3-{4-[(3S)-2-(2,6-dioxopiperidin-3-yl)-4-fluoro-3-methyl-1-oxo-2,3-dihydro-1H-isoindol-5-yl]piperidin-1-yl}cyclobutoxy]piperidin-1-yl}pyrimidin-4-yl)amino]-2-oxo-1-(propan-2-yl)-1,2-dihydroquinolin-3-yl}oxy)-N-methylacetamide] as the compound, how does the Dmax (T47D) read?
The Dmax was at least 70%.

What about the DC50 of the same compound?
Its DC50 is under 10 nM.

What does the source list for `CNC(=O)COc1cc2cc(Nc3nc(N4CCN(CC5CCC6(CC5)CN(c5ccc7c(c5OC)CN(C5CCC(=O)NC5=O)C7=O)C6)CC4)ncc3Cl)ccc2n(C(C)C)c1=O` (centres unmarked) [Compound 331, 2-{[6-({5-chloro-2-[4-({2-[2-(2,6-dioxopiperidin-3-yl)-4-methoxy-1-oxo-2,3-dihydro-1H-isoindol-5-yl]-2-azaspiro[3.5]nonan-7-yl}methyl)piperazin-1-yl]pyrimidin-4-yl}amino)-2-oxo-1-(propan-2-yl)-1,2-dihydroquinolin-3-yl]oxy}-N-methylacetamide]?
Dmax (T47D): 50 to 70%; DC50: 10 to 50 nM

Which DC50 [1] does the source give for `CNC(=O)COc1cc2cc(Nc3nc(N4CCC(OC5CCC6(CCN(c7ccc8c(c7)CN(C7CCC(=O)NC7=O)C8=O)C6)C5)CC4)ncc3Cl)ccc2n(C(C)C)c1=O` (centres unmarked) [Compound 98, 2-{[6-({5-chloro-2-[4-({2-[2-(2,6-dioxopiperidin-3-yl)-1-oxo-2,3-dihydro-1H-isoindol-5-yl]-2-azaspiro[4.4]nonan-7-yl}oxy)piperidin-1-yl]pyrimidin-4-yl}amino)-2-oxo-1-(propan-2-yl)-1,2-dihydroquinolin-3-yl]oxy}-N-methylacetamide] here?
The DC50 was under 10 nM.

And the Dmax [1]?
The Dmax was under 50%.

`CNC(=O)COc1cc2cc(Nc3nc(N4CCC(F)(CN5CCC6(CC5)CCN(c5c(F)ccc7c5CN(C5CCC(=O)NC5=O)C7=O)CC6)CC4)ncc3Cl)ccc2n(C(C)C)c1=O` (centres unmarked) [Compound 151, 2-{[6-({5-chloro-2-[4-({9-[2-(2,6-dioxopiperidin-3-yl)-5-fluoro-1-oxo-2,3-dihydro-1H-isoindol-4-yl]-3,9-diazaspiro[5.5]undecan-3-yl}methyl)-4-fluoropiperidin-1-yl]pyrimidin-4-yl}amino)-2-oxo-1-(propan-2-yl)-1,2-dihydroquinolin-3-yl]oxy}-N-methylacetamide] was tested. Which DC50 [1] did it give?
Its DC50 is under 10 nM.

And the Dmax [1]?
Its Dmax is 50 to 70%.

What does the source list for `CNC(=O)COc1cc2cc(Nc3nc(N4CCC(O[C@H]5C[C@H](N6CCC(c7ccc8c(c7F)[C@@H](C)N([C@H]7CCC(=O)NC7=O)C8=O)CC6)C5)CC4)ncc3Cl)ccc2n(C(C)C)c1=O` [Compound 288, 2-({6-[(5-chloro-2-{4-[(1r,3r)-3-{4-[(3R)-2-[(3S)-2,6-dioxopiperidin-3-yl]-4-fluoro-3-methyl-1-oxo-2,3-dihydro-1H-isoindol-5-yl]piperidin-1-yl}cyclobutoxy]piperidin-1-yl}pyrimidin-4-yl)amino]-2-oxo-1-(propan-2-yl)-1,2-dihydroquinolin-3-yl}oxy)-N-methylacetamide]?
Dmax (T47D): < 50%; DC50: 10 to 50 nM

With `CNC(=O)COc1cc2cc(Nc3nc(N4CCC(O[C@H]5C[C@H](N6CCC(c7cc(OC)c8c(c7F)CN([C@H]7CCC(=O)NC7=O)C8=O)CC6)C5)CC4)ncc3Cl)ccc2n(C(C)C)c1=O` [Compound 407, 2-({6-[(5-chloro-2-{4-[(1r,3r)-3-(4-{2-[(3S)-2,6-dioxopiperidin-3-yl]-4-fluoro-7-methoxy-1-oxo-2,3-dihydro-1H-isoindol-5-yl}piperidin-1-yl)cyclobutoxy]piperidin-1-yl}pyrimidin-4-yl)amino]-2-oxo-1-(propan-2-yl)-1,2-dihydroquinolin-3-yl}oxy)-N-methylacetamide] as the compound, how does the Dmax (T47D) read?
Its Dmax is at least 70%.

And the DC50?
The DC50 was under 10 nM.

For `CNC(=O)COc1cc2cc(Nc3nc(N4CCC(F)(CN5CCC6(CC5)CCN(c5cc(F)cc7c5CN(C5CCC(=O)NC5=O)C7=O)CC6)CC4)ncc3Cl)ccc2n(C(C)C)c1=O` (centres unmarked) [Compound 73, 2-{[6-({5-chloro-2-[4-({9-[2-(2,6-dioxopiperidin-3-yl)-6-fluoro-1-oxo-2,3-dihydro-1H-isoindol-4-yl]-3,9-diazaspiro [5.5]undecan-3-yl}methyl)-4-fluoropiperidin-1-yl]pyrimidin-4-yl}amino)-2-oxo-1-(propan-2-yl)-1,2-dihydroquinolin-3-yl]oxy}-N-methylacetamide], which DC50 [1] is on record?
Its DC50 is under 10 nM.

And the Dmax [1]?
Its Dmax is 50 to 70%.

With `CNC(=O)COc1cc2cc(Nc3nc(N4CCC(O[C@H]5C[C@H](N6CCC7(CCN(c8ccc9c(c8)C(=O)N(C8CCC(=O)NC8=O)C9=O)CC7)CC6)C5)CC4)ncc3Cl)ccc2n(C(C)C)c1=O` (some centres unmarked) [Compound 343, 2-({6-[(5-chloro-2-{4-[(1r,3r)-3-{9-[2-(2,6-dioxopiperidin-3-yl)-1,3-dioxo-2,3-dihydro-1H-isoindol-5-yl]-3,9-diazaspiro [5.5]undecan-3-yl}cyclobutoxy]piperidin-1-yl}pyrimidin-4-yl)amino]-2-oxo-1-(propan-2-yl)-1,2-dihydroquinolin-3-yl}oxy)-N-methylacetamide] as the compound, how does the Dmax (T47D) read?
The Dmax was 50 to 70%.

And the DC50?
The DC50 was under 10 nM.

What does the source list for `CNC(=O)COc1cc2cc(Nc3nc(N4CCC(O[C@H]5C[C@H](N6CCN(c7ccc8c(n7)C(C)N(C7CCC(=O)NC7=O)C8=O)[C@@H](C)C6)C5)CC4)ncc3Cl)ccc2n(C(C)C)c1=O` (some centres unmarked) [Compound 204]?
DC50 [1]: < 10 nM; Dmax [1]: ≥ 70%

With `CNC(=O)COc1cc2cc(Nc3nc(N4CCC(CN5CCN(c6ccc7c(c6C)C(=O)N(C6CCC(=O)NC6=O)C7=O)CC5)CC4)ncc3Cl)ccc2n(C(C)C)c1=O` (centres unmarked) [Compound 403, 2-{[6-({5-chloro-2-[4-({4-[2-(2,6-dioxopiperidin-3-yl)-4-methyl-1,3-dioxo-2,3-dihydro-1H-isoindol-5-yl]piperazin-1-yl}methyl)piperidin-1-yl]pyrimidin-4-yl}amino)-2-oxo-1-(propan-2-yl)-1,2-dihydroquinolin-3-yl]oxy}-N-methylacetamide] as the compound, how does the Dmax (T47D) read?
Its Dmax is 50 to 70%.

And the DC50?
The DC50 was under 10 nM.

For `CC(C)n1c(=O)c(OCC(=O)N(C)O)cc2cc(Nc3nc(N4CCC(O[C@H]5C[C@H](N6CCC(c7ccc8c(c7F)CN(C7CCC(=O)NC7=O)C8=O)CC6)C5)CC4)ncc3Cl)ccc21` (some centres unmarked) [Compound 265, 2-({6-[(5-chloro-2-{4-[(1r,3r)-3-{4-[2-(2,6-dioxopiperidin-3-yl)-4-fluoro-1-oxo-2,3-dihydro-1H-isoindol-5-yl]piperidin-1-yl}cyclobutoxy]piperidin-1-yl}pyrimidin-4-yl)amino]-2-oxo-1-(propan-2-yl)-1,2-dihydroquinolin-3-yl}oxy)-N-hydroxy-N-methylacetamide], which Dmax (T47D) is on record?
Its Dmax is at least 70%.

And the DC50?
Its DC50 is under 10 nM.
